# Data as given in patent publication US10874743B2, “IRAK degraders and uses thereof” (Kymera Therapeutics, Inc., priority 2017, dated 2020).
# Tests used:
# IRAK4 [1] = target: T1, IRAK4 (Homo sapiens, UniProt Q9NWZ3); assay: OCI-LY-10 degradation assay (western blot, % IRAK4 degraded after 4 hours); assay type: cell-based; set-up: endogenous in cells; host or cells: OCI-LY10; conditions: OCI-LY10 cells, 4 hours; for OCI-LY10 % IRAK4 Degradation (0.01 uM): 0.01 uM compound; for OCI-LY10 % IRAK4 Degradation (0.1 uM): 0.1 uM compound; for OCI-LY10 % IRAK4 Degradation (1 uM): 1 uM compound
# T1 sequence (Q9NWZ3 1-460): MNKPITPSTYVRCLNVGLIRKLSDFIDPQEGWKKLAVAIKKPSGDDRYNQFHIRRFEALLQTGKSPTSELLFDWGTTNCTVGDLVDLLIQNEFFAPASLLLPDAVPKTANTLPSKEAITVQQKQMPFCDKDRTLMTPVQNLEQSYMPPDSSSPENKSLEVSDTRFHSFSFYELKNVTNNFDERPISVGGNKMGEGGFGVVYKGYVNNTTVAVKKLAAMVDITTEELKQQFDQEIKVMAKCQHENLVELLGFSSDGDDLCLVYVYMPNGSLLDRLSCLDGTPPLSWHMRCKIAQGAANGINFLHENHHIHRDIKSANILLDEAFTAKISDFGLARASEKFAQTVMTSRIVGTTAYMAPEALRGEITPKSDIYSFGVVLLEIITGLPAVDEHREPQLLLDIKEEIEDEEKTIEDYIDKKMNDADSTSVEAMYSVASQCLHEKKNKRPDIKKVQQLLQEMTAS
# Method in brief: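 IRAK4 loss after 4 h at 37° C was scored A (>50%), B (>20-50%) or C (<20%) from infrared western blots of RIPA lysates, 20-25 μg protein per lane. Compound was applied at 0.003-10 μM final to OCI-LY10 cells cultured in RPMI-1640 with 20% FBS and 55 μM 2-ME.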
# IRAK4 [2] = target: T1, IRAK4; assay: OCI-LY-10 MSD assay for IRAK4 DC50; assay type: cell-based; set-up: endogenous in cells; host or cells: OCI-LY10; conditions: OCI-LY10 cells, 4 hr incubation, concentration required to degrade 50% of protein
# Method in brief: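 IRAK4 level was quantified by MSD electrochemiluminescence (anti-IRAK4 capture antibody, rabbit anti-IRAK4 detection antibody) in RIPA lysates of OCI-Ly10 cells. Cells had been treated with compound for 4 hr (8-point, 3-fold serial dilution). Remaining protein versus concentration was fitted to a sigmoidal curve to give DC50.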
OCI-LY10 % IRAK4 Degradation (0.01 uM) (IRAK4 [1]),OCI-LY10 % IRAK4 Degradation (0.1 uM) (IRAK4 [1]),OCI-LY10 % IRAK4 Degradation (1 uM) (IRAK4 [1]),DC50 (IRAK4 [2]) [µM],SMILES
B (>20-50% degradation),B (>20-50% degradation),B (>20-50% degradation),> 1,NC(=O)c1nn(CCOCCOCCOCCOCCNc2cccc3c2C(=O)N(C2CCC(=O)NC2=O)C3=O)cc1NC(=O)c1coc(-c2ccnc(NCC3CC3)c2)n1 (stereo not shown) [I-240]
A (>50% degradation),A (>50% degradation),A (>50% degradation),< 0.05,O=C1CCC(N2C(=O)c3cccc(NC4CCN(CCOCCOCCNC(=O)c5ccc(-n6cc(NC(=O)c7coc(-c8ccnc(NCC(F)(F)F)c8)n7)c(C(F)F)n6)cc5)CC4)c3C2=O)C(=O)N1 (stereo not shown) [I-283]
C (<20% degradation),A (>50% degradation),A (>50% degradation),0.05 to 0.1,O=C1CCC(N2C(=O)c3cccc(OCc4cn(CCOCCOCCNCc5ccc(-n6cc(NC(=O)c7coc(-c8ccnc(NCC9CC9)c8)n7)c(C(F)F)n6)cc5)nn4)c3C2=O)C(=O)N1 (stereo not shown) [I-344]
B (>20-50% degradation),A (>50% degradation),A (>50% degradation),< 0.05,CN(CCOCCOCCCc1cccc2c1C(=O)N(C1CCC(=O)NC1=O)C2=O)C(=O)c1ccc(-n2cc(NC(=O)c3coc(-c4ccnc(NCC5CC5)c4)n3)c(C(N)=O)n2)cc1 (stereo not shown) [I-224]
C (<20% degradation),C (<20% degradation),B (>20-50% degradation),> 1,O=C1CCC(N2Cc3cc(NC4CCN(CCOCCOCCNCc5ccc(-n6cc(NC(=O)c7coc(-c8ccnc(NCC9CC9)c8)n7)c(C(F)F)n6)cc5)CC4)ccc3C2=O)C(=O)N1 (stereo not shown) [I-387]
C (<20% degradation),C (<20% degradation),C (<20% degradation),> 1,CC(C)(C)[C@H](NC(=O)COCCOCCOCCNc1cccc2c1C(=O)N(C1CCC(=O)NC1=O)C2=O)C(=O)N1C[C@H](O)C[C@H]1C(=O)NCc1ccc(-n2cc(NC(=O)c3coc(-c4ccnc(NCC5CC5)c4)n3)c(C(F)F)n2)cc1 (stereo partly shown) [I-284]
C (<20% degradation),B (>20-50% degradation),A (>50% degradation),< 0.05,O=C1CCC(N2C(=O)c3cccc(NC4CCN(CCOCCOCCOCCNC(=O)c5ccc(-n6cc(NC(=O)c7coc(-c8ccnc(NCC9CC9)c8)n7)c(C(F)F)n6)cc5)CC4)c3C2=O)C(=O)N1 (stereo not shown) [I-269]
C (<20% degradation),B (>20-50% degradation),A (>50% degradation),0.1 to 0.5,O=C1CCC(N2C(=O)c3cccc(NC4CCN(CCOCCOCCOCCNCc5ccc(-n6cc(NC(=O)c7coc(-c8ccnc(NCC9CC9)c8)n7)c(C(F)F)n6)cc5)CC4)c3C2=O)C(=O)N1 (stereo not shown) [I-386]
C (<20% degradation),C (<20% degradation),A (>50% degradation),0.05 to 0.1,CC(=O)O[C@@H]1C[C@@H](C(=O)NCc2ccc(-n3cc(NC(=O)c4coc(-c5ccnc(NCC6CC6)c5)n4)c(C(F)F)n3)cc2)N(C(=O)COCCOCCOCCNc2cccc3c2C(=O)N(C2CCC(=O)NC2=O)C3=O)C1 (stereo partly shown) [I-288]
C (<20% degradation),C (<20% degradation),A (>50% degradation),0.1 to 0.5,O=C1CCC(N2C(=O)c3ccc(NCCOCCN4CC5(CN(CCOCCNCc6ccc(-n7cc(NC(=O)c8coc(-c9ccnc(NCC%10CC%10)c9)n8)c(C(F)F)n7)cc6)C5)C4)cc3C2=O)C(=O)N1 (stereo not shown) [I-351]
C (<20% degradation),C (<20% degradation),A (>50% degradation),0.5 to 1,O=C1CCC(N2C(=O)c3ccc(NC4CCN(CCOCCOCCOCCNCc5ccc(-n6cc(NC(=O)c7coc(-c8ccnc(NCC9CC9)c8)n7)c(C(F)F)n6)cc5)CC4)cc3C2=O)C(=O)N1 (stereo not shown) [I-389]

# The remaining lines, values behind:
SMILES,OCI-LY10 % IRAK4 Degradation (0.01 uM) (IRAK4 [1]),OCI-LY10 % IRAK4 Degradation (0.1 uM) (IRAK4 [1]),OCI-LY10 % IRAK4 Degradation (1 uM) (IRAK4 [1]),DC50 (IRAK4 [2]) [µM]
"NC(=O)c1nn(-c2ccc(COCC3CN(CCOCCNc4cccc5c4C(=O)N(C4CCC(=O)NC4=O)C5=O)CCO3)cc2)cc1NC(=O)c1coc(-c2ccnc(NCC(F)(F)F)c2)n1 (stereo not shown) [I-302, N-[3-carbamoyl-1-[4-[[4-[2-[2-[[2-(2,6-dioxo-3-piperidyl)-1,3-dioxo-isoindolin-4-yl]amino]ethoxy]ethyl]morpholin-2-yl]methoxymethyl]phenyl]pyrazol-4-yl]-2-[2-(2,2,2-trifluoroethylamino)-4-pyridyl]oxazole-4-carboxamide]",B (>20-50% degradation),A (>50% degradation),A (>50% degradation),< 0.05
NC(=O)c1nn(-c2ccc(C(=O)NCCOCCOCCn3c(=O)n(C4CCC(=O)NC4=O)c4ccccc43)cc2)cc1NC(=O)c1coc(-c2ccnc(NCC(F)(F)F)c2)n1 (stereo not shown) [I-231],A (>50% degradation),A (>50% degradation),A (>50% degradation),< 0.05
NC(=O)c1nn(-c2ccc(C(=O)NCCOCCOCCOCCOCCCc3cccc4c3C(=O)N(C3CCC(=O)NC3=O)C4=O)cc2)cc1NC(=O)c1coc(-c2ccnc(NCC(F)(F)F)c2)n1 (stereo not shown) [I-235],C (<20% degradation),A (>50% degradation),A (>50% degradation),0.05 to 0.1
O=C1CCC(N2C(=O)c3ccc(N4CCN(CCOCCNC(=O)c5ccc(-n6cc(NC(=O)c7coc(-c8ccnc(NCC9CC9)c8)n7)c(C(F)F)n6)cc5)CC4)cc3C2=O)C(=O)N1 (stereo not shown) [I-277],C (<20% degradation),A (>50% degradation),A (>50% degradation),0.05 to 0.1
Cn1cc(NC(=O)c2coc(-c3ccnc(NCC(F)(F)F)c3)n2)c(C(=O)NCCCOCC(C)(C)COCCCc2cccc3c2n(C)c(=O)n3C2CCC(=O)NC2=O)n1 (stereo not shown) [I-297],C (<20% degradation),C (<20% degradation),C (<20% degradation),> 1
CN(CCOCCOCCCc1ccc2c(c1)C(=O)N(C1CCC(=O)NC1=O)C2=O)C(=O)c1ccc(-n2cc(NC(=O)c3coc(-c4ccnc(NCC5CC5)c4)n3)c(C(N)=O)n2)cc1 (stereo not shown) [I-228],A (>50% degradation),A (>50% degradation),A (>50% degradation),< 0.05
CN(CCNCCCc1ccc2c(c1)C(=O)N(C1CCC(=O)NC1=O)C2=O)C(=O)c1ccc(-n2cc(NC(=O)c3coc(-c4ccnc(NCC5CC5)c4)n3)c(C(N)=O)n2)cc1 (stereo not shown) [I-397],B (>20-50% degradation),A (>50% degradation),A (>50% degradation),< 0.05
O=C1CCC(N2C(=O)c3cccc(CCCNCc4ccc(-n5cc(NC(=O)c6coc(-c7ccncc7)n6)c(C(F)F)n5)cc4)c3C2=O)C(=O)N1 (stereo not shown) [I-366],C (<20% degradation),C (<20% degradation),C (<20% degradation),> 1
